Test results published in patent publication US20250051321A1, “TRICYCLIC DERIVATIVE AND PREPARATION METHOD THEREFOR AND APPLICATION THEREOF” (SHANGHAI JEMINCARE PHARMACEUTICAL CO., LTD., priority 2021, published 2025).
Read-outs that look alike come from different tables or passages of the source.

How the values were obtained:
[1] = Pharmacokinetic test in mice; format: in vivo, ICR mice; conditions: male, ICR, mouse, plasma, 5 mg/kg, PO - 5 mpk
Method: Dosage preparation: The dosing solution was prepared on the day of dosing. 2 mg of compound was weighed and dissolved in 5% DMSO+10% solutol+85% saline to prepare a solution for intravenous administration at a concentration of 0.2 mg/mL. 2 mg of compound was weighed and dissolved in 25% PEG 200+75% (0.5% MC) to obtain a solution for oral administration at a concentration of 1 mg/mL.
Six healthy male naïve ICR mice, weighing 25 to 30 g, were divided into two groups (intravenous and oral groups) with three in each group, and administered in a single dose. After 3 days of acclimatization, the mice were fasted overnight (10 to 12 hours) the night before the experiment, but had free access to water during the experiment, and the diet was resumed 4 hours after administration. After intravenous and oral administration, the timer was started. Blood was collected via the orbital venous plexus at the scheduled time points (IV&PO: 0.083, 0.25, 0.5, 1, 2, 4, 6, 8, and 24 hours). 40 μL of whole blood was collected at each point and added to a 1.5 mL EP tube containing sodium heparin. The collected whole blood was vibrated twice on a vortex mixer, mixed well, placed on wet ice, and centrifuged at 8000 rpm for 5 minutes at 4° C. within 1 hour. The supernatant plasma was stored in a −80° C. freezer until processing for analysis.

[2] = target: ATX (Homo sapiens (Human), UniProt Q13822); experiment: ATX enzyme inhibition assay (Amplex UltraRed/choline oxidase/HRP, 16:0 Lyso PC substrate); format: biochemical; conditions: assay buffer pH 8.5; read-out: IC50 (nM) pH 8.5
Method in brief: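 ATX (2× stock […]) preincubated with compound for 10 min at room temperature in assay buffer at pH 8.5 or 7.5. Reaction started with 16:0 Lyso PC, choline oxidase, HRP and Amplex UltraRed (2.5× working stock); fluorescence read kinetically (ex 550/em 590 nm) for 60 min.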

[3] = system: plasma LPA 18:1 and LPA 18:2; experiment: Human plasma ex vivo assay (LPA 18:1 / 18:2 by LC-MS/MS); format: biochemical; conditions: 37° C., 2 hours
Method in brief: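 Human plasma incubated 2 h at 37° C with compound (8 points, 1:3 dilution, top 10 μM, 0.1% DMSO), then quenched with 0.1% FA containing LPA 17:0 internal standard.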

[4] = LPA 18:1, read-out: Human plasma ex vivo assay IC50 (18:1 LPA)
[5] = LPA 18:2, read-out: Human plasma ex vivo assay IC50 (18:2 LPA)

| SMILES | AUC [1] [ng·h/mL] | Cmax [1] [ng/mL] | Tmax [1] [h] | half-life [1] [h] | IC50 [2] [nM] | IC50 [3, 4] [nM] | IC50 [3, 5] [nM] |
| --- | --- | --- | --- | --- | --- | --- | --- |
| CN(c1nc(-c2ccc(F)cc2)c(C#N)s1)c1c2c(nc3c(F)cc(N4CC5(CN(C(=O)C(C)(C)O)C5)C4)cc13)CCC2 [Example C32] | 21400 | 2660 | 0.5 | 2.56 |  |  |  |
| C[C@H]1CN(CC(=O)N2CC(O)C2)CCN1c1cc(F)c2nc3c(c(N(C)c4nc(-c5ccc(F)cc5)c(C#N)s4)c2c1)CCC3O (stereo partly shown) [Example E7] |  |  |  |  | 15.4 | 149 | 327 |
| C[C@H]1CN(c2cc(F)c3nc4c(c(N(C)c5nc(-c6ccc(F)cc6)c(C#N)s5)c3c2)CCC4O)CCN1CC(=O)N1CC(O)C1 (stereo partly shown) [Example E8] |  |  |  |  | 15.4 | 175 | 160 |
| C[C@@H]1CN(c2cc(F)c3nc4c(c(N(C)c5nc(-c6ccc(F)cc6)c(C#N)s5)c3c2)CCC4O)CCN1CC(=O)N1CC(O)C1 (stereo partly shown) [Example E9] |  |  |  |  | 19.6 | 160 | 152 |
| CN(c1nc(-c2ccc(F)cc2)c(C#N)s1)c1c2c(nc3c(F)cc(N4CCN(CC(=O)N5CC(C)(O)C5)CC4)cc13)C(O)CC2 (stereo not shown) [Example E10] |  |  |  |  | 16.2 | 139 | 270 |

The remaining lines, values ahead:

| AUC [1] [ng·h/mL] | Cmax [1] [ng/mL] | Tmax [1] [h] | half-life [1] [h] | IC50 [2] [nM] | IC50 [3, 4] [nM] | IC50 [3, 5] [nM] | SMILES |
| --- | --- | --- | --- | --- | --- | --- | --- |
|  |  |  |  | 17.3 | 281 | 651 | CN(c1nc(-c2ccc(F)cc2)c(C#N)s1)c1c2c(nc3c(F)cc(N4CC5(CN(C(=O)C6CCOCC6)C5)C4)cc13)C(O)CC2 (stereo not shown) [Example E14] |
|  |  |  |  | 13.3 | 266 | 271 | CN(c1nc(-c2ccc(F)cc2)c(C#N)s1)c1c2c(nc3c(F)cc(N4CC5(CN(C(=O)C6(O)CCOCC6)C5)C4)cc13)C(O)CC2 (stereo not shown) [Example E15] |
|  |  |  |  | 16.8 | 410 | 436 | CN(c1nc(-c2ccc(F)cc2)c(C#N)s1)c1c2c(nc3c(F)cc(N4CC5(CN(C(=O)C(C)(C)O)C5)C4)cc13)C(O)CC2 (stereo not shown) [Example E16] |
|  |  |  |  | 21.4 | 250 | 260 | CN1CC[C@H](C(=O)N2CC3(C2)CN(c2cc(F)c4nc5c(c(N(C)c6nc(-c7ccc(F)cc7)c(C#N)s6)c4c2)CCC5O)C3)C1 (stereo partly shown) [Example E18] |
| 23900 | 2830 | 0.58 | 2.66 |  | 379 | 457 | Cc1cc(N2CC3(CN(C(=O)C(C)(C)O)C3)C2)nc2c(N(C)c3nc(-c4ccc(F)cc4)c(C#N)s3)c3c(nc12)C(C)(O)CC3 (stereo not shown) [Example E25] |
| 31300 | 4430 | 1.75 | 2.16 |  | 516 | 592 | Cc1cc(N2CC3(CN(C(=O)C(C)(C)O)C3)C2)cc2c(N(C)c3nc(-c4ccc(F)cc4)c(C#N)s3)c3c(nc12)C(O)CC3 (stereo not shown) [Example E26] |
| 8890 | 2040 | 1.58 | 1.51 |  | 202 | 185 | Cc1cc(N2CC3(CN(C(=O)C(C)(C)O)C3)C2)nc2c(N(C)c3nc(-c4ccc(F)cc4)c(C#N)s3)c3c(nc12)C(O)CC3 (stereo not shown) [Example E32] |
